In patent US7109193B2, “Tricyclic diazepines tocolytic oxytocin receptor antagonists” (Wyeth, priority 2001, dated 2006):

Molecular target: T1, human vasopressin V2 receptor subtype (Homo sapiens, UniProt P30518)
T1 construct: host or cells: CHO cells (pZeoSV vector)
Assay: Vasopressin binding in Chinese Hamster Ovary cell membranes expressing human vasopressin V2 subtype receptors
Conditions: CHO cell membranes, [3H]arginine vasopressin; for inhibition at 0.1 µM: 100 nM, values without parentheses; for IC50: values in parentheses
In short: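 Radioligand displacement on membranes from CHO cells stably expressing human V2 receptor, 25 to 50 μg protein/well, in 50 mM Tris-HCl pH 7.4 with MgCl2, BSA and protease inhibitors. [^3H]arginine vasopressin (8 nM working solution) incubated 60 min at room temperature; bound label measured by filtration and scintillation counting.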

T1 sequence (P30518 whole entry): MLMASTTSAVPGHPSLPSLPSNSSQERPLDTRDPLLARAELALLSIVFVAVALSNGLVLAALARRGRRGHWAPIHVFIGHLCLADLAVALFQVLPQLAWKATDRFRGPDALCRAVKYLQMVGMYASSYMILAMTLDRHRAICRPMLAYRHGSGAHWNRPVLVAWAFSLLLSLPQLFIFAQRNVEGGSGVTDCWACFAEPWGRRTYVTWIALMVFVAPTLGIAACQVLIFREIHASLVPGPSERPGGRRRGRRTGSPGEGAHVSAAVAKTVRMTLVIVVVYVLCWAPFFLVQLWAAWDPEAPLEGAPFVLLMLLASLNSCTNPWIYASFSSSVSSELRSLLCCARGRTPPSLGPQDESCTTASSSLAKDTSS

| inhibition at 0.1 µM | IC50 | Compound |
| --- | --- | --- |
| 18% |  | COc1cc(C(=O)N2Cc3ccc(C(=O)N(C)CCCN(C)C)n3Cc3ccccc32)ccc1-c1ccccc1C [Example 105, N-[3-(Dimethylamino)propyl]-10-[(2-methoxy-2′-methyl[1,1′-biphenyl]-4-yl)carbonyl]-N-methyl-10,11-dihydro-5H-pyrrolo[2,1-c][1,4]benzodiazepine-3-carboxamide] |
|  | 700 nM | COc1ccccc1-c1ccc(C(=O)N2Cc3ccc(C(=O)N4CCN(C)CC4)n3Cc3ccccc32)cc1 [Example 48, {10-[(2′-Methoxy[1,1′-biphenyl]-4-yl)carbonyl]-10,11-dihydro-5H-pyrrolo[2,1-c][1,4]benzodiazepin-3-yl}(4-methyl-1-piperazinyl)methanone] |
|  | 508 nM | COc1ccccc1-c1ccc(C(=O)N2Cc3ccc(C(=O)N4CCN(CCCN(C)C)CC4)n3Cc3ccccc32)cc1 [Example 246, {4-[3-(Dimethylamino)propyl]-1-piperazinyl}{10-[(2′-methoxy[1,1′-biphenyl]-4-yl)carbonyl]-10,11-dihydro-5H-pyrrolo[2,1-c][1,4]benzodiazepin-3-yl}methanone] |
|  | 1330 nM | COc1cccc(-c2cc(OC)c(C(=O)N3Cc4ccc(C(=O)N(C)CCCN(C)C)n4Cc4ccccc43)cc2Cl)c1 [Example 99, 10-[(6-Chloro-3,3′-dimethoxy[1,1′-biphenyl]-4-yl)carbonyl]-N-[3-(dimethylamino)propyl]-N-methyl-10,11-dihydro-5H-pyrrolo[2,1-c][1,4]benzodiazepine-3-carboxamide] |
|  | 4.7 nM | O=C(c1ccc(-c2cccc3ccccc23)cc1Cl)N1Cc2cccn2Cc2ccccc21 [Example 24, [2-Chloro-4-(naphthalen-1-yl)phenyl][10,11-dihydro-5H-pyrrolo[2,1-c][1,4]benzodiazepin-10-yl]methanone] |
|  | 298 nM | COc1ccccc1-c1ccc(C(=O)N2Cc3ccc(C(=O)N4CCN(CCN(C)C)CC4)n3Cc3ccccc32)cc1C [Example 195, {4-[2-(Dimethylamino)ethyl]-1-piperazinyl}{10-[(2′-methoxy-2-methyl[1,1′-biphenyl]-4-yl)carbonyl]-10,11-dihydro-5H-pyrrolo[2,1-c][1,4]benzodiazepin-3-yl}methanone] |
|  | 1320 nM | C=CCN1CCN(C(=O)c2ccc3n2Cc2ccccc2N(C(=O)c2cc(Cl)c(-c4ccccc4C)cc2OC)C3)CC1 [Example 219, (4-Allyl-1-piperazinyl){10-[(6-chloro-3-methoxy-2′-methyl[1,1′-biphenyl]-4-yl)carbonyl]-10,11-dihydro-5H-pyrrolo[2,1-c][1,4]benzodiazepin-3-yl}methanone] |
|  | 189 nM | COc1cc(-c2ccccc2F)c(Cl)cc1C(=O)N1Cc2cccn2Cc2ccccc21 [Example 18B, 10-{[6-Chloro-3-methoxy-2′-fluoro-[1,1′-biphenyl]-4-yl]carbonyl}-10,11-dihydro-5H-pyrrolo[2,1-c][1,4]benzodiazepine] |
|  | 2180 nM | COc1cccc(-c2cc(OC)c(C(=O)N3Cc4ccc(C(=O)N(C)CCN(C)C)n4Cc4ccccc43)cc2Cl)c1 [Example 87, 10-[(6-Chloro-3,3′-dimethoxy[1,1′-biphenyl]-4-yl)carbonyl]-N-[2-(dimethylamino)ethyl]-N-methyl-10,11-dihydro-5H-pyrrolo[2,1-c][1,4]benzodiazepine-3-carboxamide] |
|  | 497 nM | COc1cc(-c2ccccc2C)c(Cl)cc1C(=O)N1Cc2ccc(C(=O)N3CCN(CCN(C)C)CC3)n2Cc2ccccc21 [Example 197, {10-[(6-Chloro-3-methoxy-2′-methyl[1,1′-biphenyl]-4-yl)carbonyl]-10,11-dihydro-5H-pyrrolo[2,1-c][1,4]benzodiazepin-3-yl}{4-[2-(dimethylamino)ethyl]-1-piperazinyl}methanone] |
|  | 772 nM | COc1ccccc1-c1ccc(C(=O)N2Cc3ccc(C(=O)N4CCC(N5CCCCC5)CC4)n3Cc3ccccc32)cc1 [Example 111, {10-[(2′-Methoxy[1,1′-biphenyl]-4-yl)carbonyl]-10,11-dihydro-5H-pyrrolo[2,1-c][1,4]benzodiazepin-3-yl}[4-(1-piperidinyl)-1-piperidinyl]methanone] |
|  | 4360 nM | COc1cc(C(=O)N2Cc3ccc(C(=O)N4CCC[C@H]4CN4CCCC4)n3Cc3ccccc32)ccc1-c1ccccc1C(F)(F)F [Example 20, {[10-(2-Methoxy)-2′-trifluoromethyl-[1,1′-biphenyl]-4-yl]carbonyl}-[(2S)-[(2-pyrrolidin-1-yl)methyl]pyrrolidin-1-yl]-10,11-dihydro-5H-pyrrolo[2,1-c][1,4]benzodiazepin-3-yl-methanone] |
|  | 4120 nM | COc1cccc(-c2ccc(C(=O)N3Cc4ccc(C(=O)N5CCC[C@H]5CN5CCCC5)n4Cc4ccccc43)cc2C)c1 [Example 263, {10-[(3′-Methoxy-2-methyl[1,1′-biphenyl]-4-yl)carbonyl]-10,11-dihydro-5H-pyrrolo[2,1-c][1,4]benzodiazepin-3-yl}[(2S)-2-(1-pyrrolidinylmethyl)pyrrolidinyl]methanone] |
|  | 1820 nM | C=CCN1CCN(C(=O)c2ccc3n2Cc2ccccc2N(C(=O)c2ccc(-c4ccccc4C)c(C)c2)C3)CC1 [Example 220, (4-Allyl-1-piperazinyl){10-[(2,2′-dimethyl[1,1′-biphenyl]-4-yl)carbonyl]-10,11-dihydro-5H -pyrrolo[2,1-c][1,4]benzodiazepin-3-yl}methanone] |
| 36% |  | COc1cc(C(=O)N2Cc3ccc(C(=O)N(C)CCN(C)C)n3Cc3ccccc32)ccc1-c1cccc2ccccc12 [Example 93, N-[2-(Dimethylamino)ethyl]-10-[3-methoxy-4-(1-naphthyl)benzoyl]-N-methyl-10,11-dihydro-5H-pyrrolo[2,1-c][1,4]benzodiazepine-3-carboxamide] |
| 7% |  | COc1cccc(-c2cc(OC)c(C(=O)N3Cc4ccc(C(=O)NCCCN(C)C)n4Cc4ccccc43)cc2Cl)c1 [Example 79, 10-[(6-Chloro-3,3′-dimethoxy[1,1′-biphenyl]-4-yl)carbonyl]-N-[3-(dimethylamino)propyl]-10,11-dihydro-5H-pyrrolo[2,1-c][1,4]benzodiazepine-3-carboxamide] |
| 26% |  | COc1ccccc1-c1ccc(C(=O)N2Cc3ccc(C(=O)N(C)CCN(C)C)n3Cc3ccccc32)cc1OC [Example 94, 10-[(2,2′-Dimethoxy[1,1′-biphenyl]-4-yl)carbonyl]-N-[2-(dimethylamino)ethyl]-N-methyl-10,11-dihydro-5H-pyrrolo[2,1-c][1,4]benzodiazepine-3-carboxamide] |
| 20% |  | COc1cc(C(=O)N2Cc3ccc(C(=O)N(C)CCN(C)C)n3Cc3ccccc32)ccc1-c1ccccc1C [Example 92, N-[2-(Dimethylamino)ethyl]-10-[(2-methoxy-2′-methyl[1,1′-biphenyl]-4-yl)carbonyl]-N-methyl-10,11-dihydro-5H-pyrrolo[2,1-c][1,4]benzodiazepine-3-carboxamide] |
|  | 1920 nM | Cc1cc(C(=O)N2Cc3ccc(C(=O)N4CC[C@@H](N(C)C)C4)n3Cc3ccccc32)ccc1-c1ccccc1C(F)(F)F [Example 271, [(3R)-3-(Dimethylamino)pyrrolidinyl](10-{[2-methyl-2′-(trifluoromethyl)[1,1′-biphenyl]-4-yl]carbonyl}-10,11-dihydro-5H-pyrrolo[2,1-c][1,4]benzodiazepin-3-yl)methanone] |
|  | 1160 nM | COc1cc(C(=O)N2Cc3ccc(C(=O)N(C)CCCN(C)C)n3Cc3ccccc32)ccc1-c1ccccc1C(F)(F)F [Example 21, N-Methyl-[N-(3-dimethylamino)propyl]-10-{[2-methoxy-2′-trifluoromethyl-[1,1′-biphenyl]-4-yl]carbonyl}-10,11-dihydro-5H-pyrrolo[2,1-c][1,4]benzodiazepin-3-carboxamide] |
|  | 3130 nM | Cc1cc(C(=O)N2Cc3ccc(C(=O)N(C)CCN(C)C)n3Cc3ccccc32)ccc1-c1ccccc1C(F)(F)F [Example 85, N-[2-(Dimethylamino)ethyl]-N-methyl-10-{[2-methyl-2′-(trifluoromethyl)[1,1′-biphenyl]-4-yl]carbonyl}-10,11-dihydro-5H-pyrrolo[2,1-c][1,4]benzodiazepine-3-carboxamide] |
| 26% |  | COc1ccccc1-c1ccc(C(=O)N2Cc3ccc(C(=O)N(C)CCCN(C)C)n3Cc3ccccc32)cc1C [Example 100, N-[3-(Dimethylamino)propyl]-10-[(2′-methoxy-2-methyl[1,1′-biphenyl]-4-yl)carbonyl]-N-methyl-10,11-dihydro-5H-pyrrolo[2,1-c][1,4]benzodiazepine-3-carboxamide] |
|  | 11.3 nM | Cc1ccc(-c2ccc(C(=O)N3Cc4cccn4Cc4ccccc43)cc2)c2ccccc12 [Example 25, [4-(4-Methyl-naphthalen-1-yl)phenyl][10,11-dihydro-5H-pyrrolo[2,1-c][1,4]benzodiazepin-10-yl]methanone] |
|  | 788 nM | COc1cc(-c2ccccc2C)c(Cl)cc1C(=O)N1Cc2ccc(C(=O)N3CCC(N4CCCCC4)CC3)n2Cc2ccccc21 [Example 110, {10-[(6-Chloro-3-methoxy-2′-methyl[1,1′-biphenyl]-4-yl)carbonyl]-10,11-dihydro-5H-pyrrolo[2,1-c][1,4]benzodiazepin-3-yl}[4-(1-piperidinyl)-1-piperidinyl]methanone] |
|  | 5680 nM | Cc1cc(C(=O)N2Cc3ccc(C(=O)N4CCC[C@H]4CN4CCCC4)n3Cc3ccccc32)ccc1-c1ccccc1C(F)(F)F [Example 258, (10-{[2-Methyl-2′-(trifluoromethyl)[1,1′-biphenyl]-4-yl]carbonyl}-10,11-dihydro-5H-pyrrolo[2,1-c][1,4]benzodiazepin-3-yl)[(2S)-2-(1-pyrrolidinylmethyl)pyrrolidinyl]methanone] |
|  | 1200 nM | COc1cc(-c2ccccc2C)c(Cl)cc1C(=O)N1Cc2ccc(C(=O)N3CCCN(C)CC3)n2Cc2ccccc21 [Example 60, {10-[(6-Chloro-3-methoxy-2′-methyl[1,1′-biphenyl]-4-yl)carbonyl]-10,11-dihydro-5H-pyrrolo[2,1-c][1,4]benzodiazepin-3-yl}(4-methyl-1,4-diazepan-1-yl)methanone] |
